Experimental data published in article PMC10281575, “PfCRT mutations conferring piperaquine resistance in falciparum malaria shape the kinetics of quinoline drug binding and transport” (PLOS Pathogens, 2023).
Several values for one entry are separate records, joined by “and”; a condition that tells them apart may be missing. Equal entries are not always repeated.

Biological target: T1, PfCRT^Dd2_F145I (Plasmodium falciparum, UniProt Q8IBZ9, A220S/F145I/I356T/K76T/M74I/N326S/N75E/Q271E/R371I)
T1 construct: expressed in transfected cells; host or cells: Xenopus laevis oocytes injected with in vitro transcribed RNA (pSP64T)
T1 sequence (Q8IBZ9 1-424 M74I/N75E/K76T/F145I/A220S/Q271E/N326S/I356T/R371I): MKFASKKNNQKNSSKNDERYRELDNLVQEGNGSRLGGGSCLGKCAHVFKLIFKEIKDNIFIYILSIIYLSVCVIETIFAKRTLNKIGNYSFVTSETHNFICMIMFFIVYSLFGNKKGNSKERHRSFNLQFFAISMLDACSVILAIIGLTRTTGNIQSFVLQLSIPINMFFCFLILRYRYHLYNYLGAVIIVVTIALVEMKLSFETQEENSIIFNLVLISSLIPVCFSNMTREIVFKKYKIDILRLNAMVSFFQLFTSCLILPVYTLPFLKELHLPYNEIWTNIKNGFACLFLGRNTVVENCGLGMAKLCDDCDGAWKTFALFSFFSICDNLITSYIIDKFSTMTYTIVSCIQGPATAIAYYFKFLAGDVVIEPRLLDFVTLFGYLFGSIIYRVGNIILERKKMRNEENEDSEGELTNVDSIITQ
Assay: Competition kinetics of drug transport (radiolabeled substrate plus cold inhibitor), PfCRT^Dd2_F145I-expressing oocytes
Assay type: cell-based
Description: To further characterize the kinetic relationship between CQ and PPQ, we performed a series of competition reactions. To this end, water-injected oocytes and PfCRT-expressing oocytes were incubated in medium containing one of seven concentrations of radio-labeled CQ and one of six concentrations of cold PPQ for 60 min before the amount of radio-labeled CQ uptake was determined. The rate of PfCRT-mediated CQ uptake was calculated for each condition by subtracting the corresponding value obtained for water-injected oocytes from those of PfCRT-expressing oocytes. The results were analyzed as a function of the CQ concentration (Fig 4A) and 16 different models of substrate competition were globally fit to the data by the least-squares method, using Python. The models were ranked, according to their Akaike information criterion difference (ΔAICC) and their Akaike weight (Fig 4B), with the most plausible model being the one with the lowest AICC (ΔAICC = 0) and the highest Akaike weight.
A complementary set of experiments was undertaken to investigate the kinetic mechanism by which PfCRT^Dd2_F145I accepts CQ and PPQ (Fig 6). […] These included a global fit of the substrate competition data to the 16 kinetic models (Fig 6), analysis of the secondary plots (Vmax,app and Vmax,app/KM,app as a function of the inhibitor concentration) (Fig 7A), a fractional velocity plot analysis (Fig 7B) and a comparison of the experimental data with the modelled data using the noncompetitive inhibition equation (Fig 7C to 7F). […] The fractional velocity plot illustrated the partial character of the noncompetitive inhibition mechanism by yielding a partiality factor β^CQ = 0.31 ± 0.04, by which PPQ reduces the transport velocity of CQ (Fig 7B). […] A 3D model of the kinetics between PfCRT^Dd2_F145I, CQ and PPQ, and analyses of the residuals as a function of substrate and inhibitor concentrations confirmed that the model was also an appropriate explanation for the mutant transporter (Fig 7C to 7F).
Drug transport assays were performed as previously described. Briefly, measurements of radiolabeled drug uptake were made over 1 h, unless otherwise specified. […] Where specified, one or more unlabeled drugs were also present at the indicated concentrations. The direction of drug transport in the assays is from the extracellular medium (pH 6) into the oocyte cytosol (pH 7.2), which corresponds to the efflux of CQ or PPQ from the acidic digestive vacuole (pH 5.2) into the parasite cytosol (pH 7.2). The uptake assays were terminated by removing the oocytes from the reaction medium and washing them three times with 2 mL of ice-cold ND96 buffer. Each oocyte was transferred to a separate scintillation vial and lysed by the addition of 200 μL of a 5% SDS solution. The radioactivity in the sample was measured using a liquid scintillation analyser Tri-Carb 4910 TR (PerkinElmer). Water-injected oocytes were analyzed in parallel as a negative control. The buffer from each condition was measured in duplicate in parallel to each experiment to transform counts per minute into pmol of drug. Drug uptake attributable to PfCRT was determined by subtracting the background uptake from water-injected oocytes from that of PfCRT-expressing oocytes. In all cases, at least three independent experiments were performed on oocytes from different frogs, and for each condition in an experiment, measurements were made from 10 oocytes per treatment.
The following equations were adopted from Segel (1993), and the reader is referred to that text for the assumptions made in the author’s approach in the derivation of each equation [31]. The concentration of substrate is denoted as [S1] and the concentration of the inhibiting substrate is denoted as [S2]. KS1 and KS2 are the dissociation constants for the respective substrate-protein complexes.
Analyses of the kinetic data were performed using SigmaPlot version 13.0 and Python. […]

Structure (SMILES): Clc1ccc2c(N3CCN(CCCN4CCN(c5ccnc6cc(Cl)ccc56)CC4)CC3)ccnc2c1 [PPQ, piperaquine]
- PfCRTDd2_F145I-mediated PPQ transport (10 µM PPQ, 0 µM CQ): 11.21 pmol oocyte-1 h-1 and 11.88 pmol oocyte-1 h-1 and 9.04 pmol oocyte-1 h-1
- PfCRTDd2_F145I-mediated PPQ transport (10 µM PPQ, 50 µM CQ): 9.4 pmol oocyte-1 h-1 and 8.02 pmol oocyte-1 h-1 and 11.57 pmol oocyte-1 h-1
- PfCRTDd2_F145I-mediated PPQ transport (10 µM PPQ, 125 µM CQ): 7.93 pmol oocyte-1 h-1 and 10.99 pmol oocyte-1 h-1 and 8.58 pmol oocyte-1 h-1
- PfCRTDd2_F145I-mediated PPQ transport (10 µM PPQ, 200 µM CQ): 8.51 pmol oocyte-1 h-1 and 7.12 pmol oocyte-1 h-1 and 10.43 pmol oocyte-1 h-1
- PfCRTDd2_F145I-mediated PPQ transport (10 µM PPQ, 400 µM CQ): 7.41 pmol oocyte-1 h-1 and 6.45 pmol oocyte-1 h-1
- PfCRTDd2_F145I-mediated PPQ transport (50 µM PPQ, 25 µM CQ): 33.88 pmol oocyte-1 h-1 and 40.73 pmol oocyte-1 h-1 and 51.89 pmol oocyte-1 h-1
- PfCRTDd2_F145I-mediated PPQ transport (50 µM PPQ, 50 µM CQ): 40.89 pmol oocyte-1 h-1 and 44.12 pmol oocyte-1 h-1 and 39.8 pmol oocyte-1 h-1
- PfCRTDd2_F145I-mediated PPQ transport (50 µM PPQ, 125 µM CQ): 36.42 pmol oocyte-1 h-1 and 31.75 pmol oocyte-1 h-1 and 38.13 pmol oocyte-1 h-1
- PfCRTDd2_F145I-mediated PPQ transport (50 µM PPQ, 400 µM CQ): 17.03 pmol oocyte-1 h-1 and 21.16 pmol oocyte-1 h-1
- PfCRTDd2_F145I-mediated PPQ transport (100 µM PPQ, 0 µM CQ): 60.49 pmol oocyte-1 h-1 and 74.22 pmol oocyte-1 h-1 and 56.91 pmol oocyte-1 h-1
- PfCRTDd2_F145I-mediated PPQ transport (100 µM PPQ, 25 µM CQ): 59.02 pmol oocyte-1 h-1 and 57.16 pmol oocyte-1 h-1 and 56.63 pmol oocyte-1 h-1
- PfCRTDd2_F145I-mediated PPQ transport (100 µM PPQ, 50 µM CQ): 63 pmol oocyte-1 h-1 and 53.26 pmol oocyte-1 h-1 and 51.28 pmol oocyte-1 h-1
- PfCRTDd2_F145I-mediated PPQ transport (100 µM PPQ, 125 µM CQ): 52.64 pmol oocyte-1 h-1 and 47.96 pmol oocyte-1 h-1 and 53 pmol oocyte-1 h-1
- PfCRTDd2_F145I-mediated PPQ transport (100 µM PPQ, 200 µM CQ): 45.31 pmol oocyte-1 h-1 and 44.84 pmol oocyte-1 h-1 and 60.71 pmol oocyte-1 h-1
- PfCRTDd2_F145I-mediated PPQ transport (100 µM PPQ, 400 µM CQ): 44.06 pmol oocyte-1 h-1 and 56.54 pmol oocyte-1 h-1
- PfCRTDd2_F145I-mediated PPQ transport (200 µM PPQ, 25 µM CQ): 102.24 pmol oocyte-1 h-1 and 78.79 pmol oocyte-1 h-1 and 91.29 pmol oocyte-1 h-1
- PfCRTDd2_F145I-mediated PPQ transport (200 µM PPQ, 50 µM CQ): 94.74 pmol oocyte-1 h-1 and 73.08 pmol oocyte-1 h-1 and 99.27 pmol oocyte-1 h-1
- PfCRTDd2_F145I-mediated PPQ transport (200 µM PPQ, 125 µM CQ): 78.46 pmol oocyte-1 h-1 and 108.53 pmol oocyte-1 h-1 and 73.37 pmol oocyte-1 h-1
- PfCRTDd2_F145I-mediated PPQ transport (200 µM PPQ, 400 µM CQ): 85.32 pmol oocyte-1 h-1 and 58.78 pmol oocyte-1 h-1
- PfCRTDd2_F145I-mediated PPQ transport (300 µM PPQ, 0 µM CQ): 115.45 pmol oocyte-1 h-1 and 117.23 pmol oocyte-1 h-1
- PfCRTDd2_F145I-mediated PPQ transport (300 µM PPQ, 25 µM CQ): 115.11 pmol oocyte-1 h-1 and 88.35 pmol oocyte-1 h-1 and 102.98 pmol oocyte-1 h-1
- PfCRTDd2_F145I-mediated PPQ transport (300 µM PPQ, 50 µM CQ): 85.96 pmol oocyte-1 h-1 and 103.73 pmol oocyte-1 h-1 and 93.02 pmol oocyte-1 h-1
- PfCRTDd2_F145I-mediated PPQ transport (300 µM PPQ, 125 µM CQ): 84.14 pmol oocyte-1 h-1 and 103.07 pmol oocyte-1 h-1 and 81.24 pmol oocyte-1 h-1
- PfCRTDd2_F145I-mediated PPQ transport (300 µM PPQ, 200 µM CQ): 75.68 pmol oocyte-1 h-1 and 80.62 pmol oocyte-1 h-1 and 99.18 pmol oocyte-1 h-1
- PfCRTDd2_F145I-mediated PPQ transport (300 µM PPQ, 400 µM CQ): 77.19 pmol oocyte-1 h-1 and 102 pmol oocyte-1 h-1
- PfCRTDd2_F145I-mediated PPQ transport (400 µM PPQ, 0 µM CQ): 130.32 pmol oocyte-1 h-1 and 101.99 pmol oocyte-1 h-1
- PfCRTDd2_F145I-mediated PPQ transport (400 µM PPQ, 25 µM CQ): 115.19 pmol oocyte-1 h-1 and 112.21 pmol oocyte-1 h-1 and 107.93 pmol oocyte-1 h-1
- PfCRTDd2_F145I-mediated PPQ transport (400 µM PPQ, 50 µM CQ): 86.8 pmol oocyte-1 h-1 and 110.06 pmol oocyte-1 h-1 and 116.13 pmol oocyte-1 h-1
- PfCRTDd2_F145I-mediated PPQ transport (400 µM PPQ, 125 µM CQ): 93.73 pmol oocyte-1 h-1 and 100.31 pmol oocyte-1 h-1 and 96.89 pmol oocyte-1 h-1
- PfCRTDd2_F145I-mediated PPQ transport (400 µM PPQ, 200 µM CQ): 75.94 pmol oocyte-1 h-1 and 96.5 pmol oocyte-1 h-1 and 106.38 pmol oocyte-1 h-1
- PfCRTDd2_F145I-mediated PPQ transport (400 µM PPQ, 400 µM CQ): 105.94 pmol oocyte-1 h-1 and 73.74 pmol oocyte-1 h-1
- PfCRTDd2_F145I-mediated PPQ transport (500 µM PPQ, 0 µM CQ): 124.15 pmol oocyte-1 h-1 and 149.83 pmol oocyte-1 h-1
- PfCRTDd2_F145I-mediated PPQ transport (500 µM PPQ, 25 µM CQ): 134.09 pmol oocyte-1 h-1 and 105.12 pmol oocyte-1 h-1 and 107.54 pmol oocyte-1 h-1
- PfCRTDd2_F145I-mediated PPQ transport (500 µM PPQ, 50 µM CQ): 102.67 pmol oocyte-1 h-1 and 147.39 pmol oocyte-1 h-1 and 78.85 pmol oocyte-1 h-1
- PfCRTDd2_F145I-mediated PPQ transport (500 µM PPQ, 125 µM CQ): 105.59 pmol oocyte-1 h-1 and 76.21 pmol oocyte-1 h-1 and 122.33 pmol oocyte-1 h-1
- PfCRTDd2_F145I-mediated PPQ transport (500 µM PPQ, 200 µM CQ): 62.06 pmol oocyte-1 h-1 and 101.24 pmol oocyte-1 h-1
